Measured values: US20260232767A1, “INTERLEUKIN-23 RECEPTOR ANTAGONIST PEPTIDES FOR USE IN THE TREATMENT OF PSORIASIS” (Janssen Pharmaceutica NV, priority 2023, published 2026)

Test system: subjects with moderate-to-severe plaque psoriasis
Experiment: Safety, adverse events, Example 2 through Week 56
Assay type: in vivo, human
Settings: 100 mg QD
Text: The LTE safety analysis was based on randomized participants in Example who entered the present long-term extension study and received at least one dose of study intervention (including a partial dose) during the study period.

For CC(=O)NCCCC[C@@H]1NC(=O)[C@H](Cc2c[nH]c3c(C)cccc23)NC(=O)[C@H]([C@@H](C)O)NC(=O)[C@H](CC(N)=O)NC(=O)[C@@H](NC(C)=O)C(C)(C)SSC(C)(C)[C@@H](C(=O)N[C@@H](Cc2ccc(OCCN)cc2)C(=O)N[C@@H](Cc2ccc3ccccc3c2)C(=O)NC2(C(=O)N[C@@H](CCC(=O)O)C(=O)N[C@@H](CC(N)=O)C(=O)N[C@@H](Cc3cccnc3)C(=O)N(C)CC(N)=O)CCOCC2)NC1=O [IL-23 receptor antagonist peptide, Ac-[Pen]*-N-T-[W(7-Me)]-[Lys(Ac)]-[Pen]*-Phe[4-(2-aminoethoxy)]-[2-Nal]-[THP]-E-N-[3-Pal]-Sarc-NH2 (*[Pen]-[Pen]* formdisulfidebond)], the “Subjects with treatment-emergent AE: Bronchitis” value (Week 16-56) was 0, the “Subjects with treatment-emergent AE: Meniscus injury” value (Week 16-56) was 0 and the “Subjects with treatment-emergent AE: Sinusitis” value (Week 16-56) was 0. The “Subjects with treatment-emergent AE: Urinary tract infection” value (Week 16-56) was 0, the “Subjects with treatment-emergent serious AE: Cardiac disorders” value (Week 16-56) was 0 and the “Subjects with treatment-emergent serious AE: Cerebrovascular accident” value (Week 16-56) was 0. For the same molecule, the “Subjects with treatment-emergent serious AE: Coronary artery disease” value (Week 16-56) was 0, the “Subjects with treatment-emergent serious AE: Foot deformity” value (Week 16-56) was 0 and the “Subjects with treatment-emergent serious AE: General disorders and administration site conditions” value (Week 16-56) was 0. For the same molecule, the “Subjects with treatment-emergent serious AE: Injury, poisoning and procedural complications” value (Week 16-56) was 0, the “Subjects with treatment-emergent serious AE: Ligament injury” value (Week 16-56) was 0 and the “Subjects with treatment-emergent serious AE: Neoplasms benign, malignant and unspecified (incl cysts and polyps)” value (Week 16-56) was 0. For the same molecule, the “Subjects with treatment-emergent serious AE: Nervous system disorders” value (Week 16-56) was 0, the “Subjects with treatment-emergent serious AE: Non-cardiac chest pain” value (Week 16-56) was 0 and the “Subjects with treatment-emergent serious AE: Respiratory, thoracic and mediastinal disorders” value (Week 16-56) was 0. For the same molecule, the “Subjects with treatment-emergent serious AE: Tonsillar hypertrophy” value (Week 16-56) was 0, the “Subjects with treatment-emergent serious AE: Uterine leiomyoma” value (Week 16-56) was 0 and the “Subjects with treatment-emergent serious AE: Ventricular dysfunction” value (Week 16-56) was 0. For the same molecule, the “Acrochordon: % of subjects” value (through Week 56) was “(2.3%)”, the “Acrochordon: number of subjects” value (through Week 56) was 1 and the “Actinic keratosis: number of subjects” value (through Week 56) was 0. For the same molecule, the “Alopecia: number of subjects” value (through Week 56) was 0, the “Asthenia: number of subjects” value (through Week 56) was 0 and the “Asthma: % of subjects” value (through Week 56) was “(2.3%)”. For the same molecule, the “Asthma: number of subjects” value (through Week 56) was 1, the “Atrioventricular block first degree: % of subjects” value (through Week 56) was “(2.3%)” and the “Atrioventricular block first degree: number of subjects” value (through Week 56) was 1. For the same molecule, the “Basal cell carcinoma: number of subjects” value (through Week 56) was 0, the “Blood and lymphatic system disorders: number of subjects” value (through Week 56) was 0 and the “Bronchitis chronic: % of subjects” value (through Week 56) was “(2.3%)”. For the same molecule, the “Bronchitis chronic: number of subjects” value (through Week 56) was 1, the “Bundle branch block right: number of subjects” value (through Week 56) was 0 and the “Cardiac disorders: % of subjects” value (through Week 56) was “(2.3%)”. For the same molecule, the “Cardiac disorders: number of subjects” value (through Week 56) was 1, the “Chills: % of subjects” value (through Week 56) was “(2.3%)” and the “Chills: number of subjects” value (through Week 56) was 1. For the same molecule, the “Cholelithiasis: % of subjects” value (through Week 56) was “(2.3%)”, the “Cholelithiasis: number of subjects” value (through Week 56) was 1 and the “Chronic obstructive pulmonary disease: % of subjects” value (through Week 56) was “(2.3%)”. For the same molecule, the “Chronic obstructive pulmonary disease: number of subjects” value (through Week 56) was 1, the “Coronary artery disease: number of subjects” value (through Week 56) was 0 and the “Cough: % of subjects” value (through Week 56) was “(7.0%)”. For the same molecule, the “Cough: number of subjects” value (through Week 56) was 3, the “Decreased appetite: number of subjects” value (through Week 56) was 0 and the “Depression: % of subjects” value (through Week 56) was “(2.3%)”. For the same molecule, the “Depression: number of subjects” value (through Week 56) was 1, the “Dermal cyst: number of subjects” value (through Week 56) was 0 and the “Dermatitis acneiform: number of subjects” value (through Week 56) was 0. The “Dermatitis contact: % of subjects” value (through Week 56) was “(2.3%)”, the “Dermatitis contact: number of subjects” value (through Week 56) was 1 and the “Diabetes mellitus: number of subjects” value (through Week 56) was 0. The “Diffuse alopecia: number of subjects” value (through Week 56) was 0, the “Dysuria: number of subjects” value (through Week 56) was 0 and the “Ear and labyrinth disorders: % of subjects” value (through Week 56) was “(2.3%)”. The “Ear and labyrinth disorders: number of subjects” value (through Week 56) was 1, the “Endocrine disorders: number of subjects” value (through Week 56) was 0 and the “Eye disorders: number of subjects” value (through Week 56) was 0. For the same molecule, the “Eyelid skin dryness: number of subjects” value (through Week 56) was 0, the “Fatigue: % of subjects” value (through Week 56) was “(2.3%)” and the “Fatigue: number of subjects” value (through Week 56) was 1. For the same molecule, the “General disorders and administration site conditions: % of subjects” value (through Week 56) was “(7.0%)”, the “General disorders and administration site conditions: number of subjects” value (through Week 56) was 3 and the “Goiter: number of subjects” value (through Week 56) was 0. The “Haemochromatosis: number of subjects” value (through Week 56) was 0, the “Hand dermatitis: number of subjects” value (through Week 56) was 0 and the “Hematuria: number of subjects” value (through Week 56) was 0. The “Hepatobiliary disorders: % of subjects” value (through Week 56) was “(2.3%)”, the “Hepatobiliary disorders: number of subjects” value (through Week 56) was 1 and the “Hypercholesterolemia: % of subjects” value (through Week 56) was “(2.3%)”. The “Hypercholesterolemia: number of subjects” value (through Week 56) was 1, the “Hyperglycemia: % of subjects” value (through Week 56) was “(2.3%)” and the “Hyperglycemia: number of subjects” value (through Week 56) was 1. The “Hyperlipidemia: number of subjects” value (through Week 56) was 0, the “Hypertension: % of subjects” value (through Week 56) was “(2.3%)” and the “Hypertension: number of subjects” value (through Week 56) was 1. The “Hypertransaminasemia: number of subjects” value (through Week 56) was 0, the “Hypertriglyceridemia: number of subjects” value (through Week 56) was 0 and the “Hypoacusis: number of subjects” value (through Week 56) was 0. The “Immune system disorders: number of subjects” value (through Week 56) was 0, the “Influenza like illness: number of subjects” value (through Week 56) was 0 and the “Insomnia: % of subjects” value (through Week 56) was “(2.3%)”. For the same molecule, the “Insomnia: number of subjects” value (through Week 56) was 1, the “Intertrigo: number of subjects” value (through Week 56) was 0 and the “Ketonuria: number of subjects” value (through Week 56) was 0. For the same molecule, the “Leukocyturia: % of subjects” value (through Week 56) was “(2.3%)”, the “Leukocyturia: number of subjects” value (through Week 56) was 1 and the “Leukopenia: number of subjects” value (through Week 56) was 0. For the same molecule, the “Libido decreased: % of subjects” value (through Week 56) was “(2.3%)”, the “Libido decreased: number of subjects” value (through Week 56) was 1 and the “Liver disorder: number of subjects” value (through Week 56) was 0. For the same molecule, the “Lymphopenia: number of subjects” value (through Week 56) was 0, the “Menopause: number of subjects” value (through Week 56) was 0 and the “Metabolism and nutrition disorders: % of subjects” value (through Week 56) was “(4.7%)”. The “Metabolism and nutrition disorders: number of subjects” value (through Week 56) was 2, the “Neoplasms benign, malignant and unspecified (incl cysts and polyps): % of subjects” value (through Week 56) was “(2.3%)” and the “Neoplasms benign, malignant and unspecified (incl cysts and polyps): number of subjects” value (through Week 56) was 1. The “Nephrolithiasis: % of subjects” value (through Week 56) was “(2.3%)”, the “Nephrolithiasis: number of subjects” value (through Week 56) was 1 and the “Neutropenia: number of subjects” value (through Week 56) was 0. For the same molecule, the “Night sweats: number of subjects” value (through Week 56) was 0, the “Non-cardiac chest pain: number of subjects” value (through Week 56) was 0 and the “Ocular cyst: number of subjects” value (through Week 56) was 0. For the same molecule, the “Oedema peripheral: % of subjects” value (through Week 56) was “(2.3%)”, the “Oedema peripheral: number of subjects” value (through Week 56) was 1 and the “Oropharyngeal pain: % of subjects” value (through Week 56) was “(2.3%)”. The “Oropharyngeal pain: number of subjects” value (through Week 56) was 1, the “Procedural pain: number of subjects” value (through Week 56) was 0 and the “Productive cough: number of subjects” value (through Week 56) was 0. The “Proteinuria: number of subjects” value (through Week 56) was 0, the “Pruritus: % of subjects” value (through Week 56) was “(2.3%)” and the “Pruritus: number of subjects” value (through Week 56) was 1. The “Psoriasis: number of subjects” value (through Week 56) was 0, the “Psychiatric disorders: % of subjects” value (through Week 56) was “(7.0%)” and the “Psychiatric disorders: number of subjects” value (through Week 56) was 3. For the same molecule, the “Pyrexia: number of subjects” value (through Week 56) was 0, the “Rash pruritic: number of subjects” value (through Week 56) was 0 and the “Renal and urinary disorders: % of subjects” value (through Week 56) was “(4.7%)”. For the same molecule, the “Renal and urinary disorders: number of subjects” value (through Week 56) was 2, the “Renal mass: number of subjects” value (through Week 56) was 0 and the “Respiratory, thoracic and mediastinal disorders: % of subjects” value (through Week 56) was “(9.3%)”.
